Experimental data reported in publication PMC5865651, “Novel inhibitor candidates of TRPV2 prevent damage of dystrophic myocytes and ameliorate against dilated cardiomyopathy in a hamster model” (Oncotarget, 2018).
Blank lines part the entries; values can stand above or below the molecule they belong to.

How the values were obtained:
mouse TRPV2 (mTRPV2) = biological target: T1, mouse TRPV2 (mTRPV2) (Mus musculus, UniProt Q9WTR1); assay: 2-APB-induced increase in [Ca2+]i in HEK293 cells expressing mTRPV2 (fura-2, microplate reader / imaging); format: cell-based; details: for Ca2+ responses elicited by TRPV2 agonists (initial assessment): cell-based assay, before optimisation of conditions; for inhibition of the 2-APB-induced increase in [Ca2+]i / IC50: HEK293 cells expressing mTRPV2, 2-APB 0.3 mM, CaCl2 5 mM, pH 6.5; for inhibition of the 2-APB-induced increase in [Ca2+]i: concentrations up to 100 μM; for IC50: read-out: IC50 for the 2-APB-induced increase in [Ca2+]i (Ca2+ response)
T1 construct: expressed in transfected cells
T1 sequence (Q9WTR1 1-756): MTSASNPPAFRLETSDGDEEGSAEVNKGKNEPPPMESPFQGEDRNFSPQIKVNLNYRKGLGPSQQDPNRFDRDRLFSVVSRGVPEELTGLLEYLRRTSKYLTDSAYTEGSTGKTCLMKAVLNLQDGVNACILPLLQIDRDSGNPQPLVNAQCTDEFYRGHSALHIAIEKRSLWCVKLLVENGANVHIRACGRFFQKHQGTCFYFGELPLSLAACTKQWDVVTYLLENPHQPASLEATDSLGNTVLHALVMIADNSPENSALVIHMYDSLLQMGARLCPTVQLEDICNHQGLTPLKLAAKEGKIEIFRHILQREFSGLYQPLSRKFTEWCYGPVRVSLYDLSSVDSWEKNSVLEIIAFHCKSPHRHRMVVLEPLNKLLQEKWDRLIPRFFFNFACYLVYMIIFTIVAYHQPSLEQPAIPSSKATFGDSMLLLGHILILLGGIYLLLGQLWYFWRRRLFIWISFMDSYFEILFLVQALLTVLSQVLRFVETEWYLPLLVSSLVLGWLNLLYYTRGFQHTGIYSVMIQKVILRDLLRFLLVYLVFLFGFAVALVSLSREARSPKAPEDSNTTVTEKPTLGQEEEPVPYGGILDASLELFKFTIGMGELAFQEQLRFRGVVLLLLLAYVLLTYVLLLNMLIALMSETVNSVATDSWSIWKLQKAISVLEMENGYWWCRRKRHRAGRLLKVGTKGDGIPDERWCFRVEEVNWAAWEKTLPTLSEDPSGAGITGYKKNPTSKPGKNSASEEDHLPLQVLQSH
Experimental: HEK293 cells expressing mouse TRPV2 (mTRPV2) and non-transfected HEK293 cells were loaded with fura-2-AM and placed in low CaCl2 medium (0.5 mM).
For the drug screening, we designed a method involving measurement of the Ca^2+ response using a 96-well high-throughput plate-reader. Cells were placed in low CaCl2 (0.5 mM) medium, which was replaced with high CaCl2 medium (5 mM) with or without the TRPV agonist 2-APB and adjusted to various pH values.
(§1) [Ca^2+]i was measured by a ratiometric fluorescence method as previously described. Briefly, HEK293 cells were loaded with 4 μM fura-2-AM for 30 min at 37° C and maintained in balanced salt solution (BSS) (146 mM NaCl, 4 mM KCl, 2 mM MgCl2, 0.5 mM CaCl2, 10 mM glucose, 0.1% bovine serum albumin, and 10 mM HEPES/Tris, pH 7.4). Fura-2-AM fluorescence was measured using an Aquacosmos fluorescence image processor (Hamamatsu Photonics, Hamamatsu, Japan). The time-course data are presented as the ratio of fluorescence at an excitation wavelength of 340 nm to that at 380 nm. The increase in the fluorescence ratio induced by the TRPV2 agonist 2-APB or high extracellular Ca^2+ (ΔR) was normalized to the initial ratio (R0) before stimulation. The fluorescence relative ratio (ΔR/R0) was plotted as the summary data in the fluorescence imaging analysis.
For screening, cells were plated in 96-well plates and the fura-2-AM fluorescence ratio at excitation wavelengths of 340 nm and 380 nm was monitored using a GENios Pro microplate reader (Tecan, Research Triangle Park, NC, USA) or POLARstar Omega (BMG Labtech, Germany). Cells were stimulated in BSS containing 5 mM CaCl2. […] All Ca^2+ measurements were carried out at room temperature. […] For simplicity, the results are presented as normalized values (% maximum) from the microplate reader experiment.

TRPV2 [1] = system: TRPV2; set-up: method as in PMID 17673572; details: cited from earlier work
hTRPC1 = biological target: T2, hTRPC1 (Homo sapiens, UniProt P48995); assay: Store-operated Ca2+ entry after thapsigargin in hTRPC1-transfected HEK293 cells; format: cell-based; details: hTRPC1-transfected HEK293 cells; thapsigargin; compound 100 μM
T2 construct: expressed in transfected cells; host or cells: HEK293 cells
Experimental: Figure 4 Effects of inhibitor compounds on the Ca^2+ response of cells expressing hTRPV1, hTRPV2, or hTRPC1 (A) Effect of compounds on CaCl2 (5 mM)-induced peak fluorescence ratio in non-transfected (nt) or hTRPV2-transfected CHO cells. The extracellular Ca^2+-dependent increase in the ratio of fura-2 fluorescence intensity at 340/380 nm (ΔR, 2 min after addition of chemicals) was plotted as ΔR/R0 after normalising to the initial fluorescence ratio (R0). […] Solid bar, no inhibitor. (B) Effect of compounds on 2-APB (1 mM)/high extracellular CaCl2-induced peak fluorescence ratio in nt or hTRPV1-transfected HEK293 cells. […] (C) Effect of compounds on store-operated Ca^2+ entry in nt or hTRPC1-transfected HEK293 cells. Cells were treated with the endoplasmic reticulum Ca^2+ pump inhibitor thapsigargin and exposed to CaCl2 and the indicated compounds. ΔR was measured 2 min after the addition of CaCl2. […] Data are shown as mean ± SD (n = 5).
as §1, with “Briefly, HEK293 cells were loaded with 4 μM fura-2-AM for 30 min at 37° C and maintained in balanced salt solution (BSS) (146 mM NaCl, 4 mM KCl, 2 mM MgCl2, 0.5 mM CaCl2, 10 mM glucose, 0.1% bovine serum albumin, and 10 mM HEPES/Tris, pH 7.4).” left out

J2N-k myocytes = assay: Stretch-induced CK release from J2N-k myocytes; format: cell-based, hamster; details: 500 μM, 30 min pretreatment, cyclic stretch 20% elongation 1 h
Experimental: (§2) Creatine phosphokinase (CK) activity in the medium was determined using an in vitro colorimetric assay kit (CK Test Kit; Wako Pure Chemical Industries, Ltd., Osaka, Japan) according to the manufacturer's protocol The cTN-I level in the serum was measured, while quantitative immunoblotting and immunocytochemistry were performed as previously described. Protein concentration was measured using the bicinchoninic acid assay (Pierce Chemical Co., Rockford, IL, USA) with bovine serum albumin as the standard. All histochemical and physiological analyses were performed by investigators blinded to the drug treatments. Unless otherwise stated, results are presented as the mean ± SD of at least 5 determinations. The unpaired Student's t-test and one-way ANOVA followed by Dunnett's test were used to analyse the data. Values of P < 0.05 (indicated as asterisks in the figures) were considered statistically significant. All cellular measurements were repeated at least 5 times. Representative data are shown.

mTRPV2 channel = biological target: T3, mTRPV2 channel (Mus musculus, UniProt Q9WTR1); assay: Whole-cell patch clamp of 2-APB-evoked mTRPV2 current in HEK293 cells; format: cell-based; details: tranilast 100 μM; 200 μM 2-APB; data not shown
T3 construct: expressed in transfected cells
T3 sequence (Q9WTR1 1-756): T1 sequence (Q9WTR1 1-756)
Experimental: The fluorescence ratio was measured by a microplate reader and normalized by the maximal value. Data are shown as mean ± SD (n = 5). […] The current values at −100 mV measured by an every-2-second ramp protocol were plotted. […] The current waveforms of the control cells and the cells 11 minutes after application of 15 μM lumin were superimposed. The L-type Ca^2+ channel currents were elicited by depolarizing pulses of 0 mV for 200 milliseconds from −80 mV.
TRPV2 currents were recorded under voltage-clamp conditions by the whole-cell patch-clamp technique. Patch pipettes (2–5 MΩ) were filled with an intracellular solution containing 110 mM K-aspartate, 30 mM KCl, 10 mM NaCl, 1 mM MgCl2, 10 mM BAPTA, 10 mM HEPES, and 3 mM MgATP (adjusted to pH 7.2 with KOH). The extracellular solution contained 145 mM NaCl, 5 mM KCl, 1.5 mM MgCl2, 1 mM EGTA, 10 mM HEPES, and 10 mM glucose (pH was adjusted to 6.5 with NaOH). Because TRPV2 was reported to desensitize in the presence of extracellular Ca^2+ [41], we used nominally Ca^2+-free medium containing 1 mM EGTA to prevent desensitization. In the experiments confirming the pH dependence of the response, the pH was adjusted to 7.4. In the whole-cell recordings, the membrane potential of the cell was held at −60 mV, while voltage ramps of 400 ms from −100 mV to +60 mV were applied every 2 seconds. Currents through the electrode were recorded at 5 kHz and filtered at 2 kHz by an Axopatch 200B amplifier (Molecular Devices, LLC, Sunnyvale, CA, USA). The junctional potential was −11.7 mV.

TRPV2 [2] = system: TRPV2; set-up: method as in PMID 21147993; details: TRPV2-transfected HEK293 cells; cited from earlier work
[3] = system: cardiomyopathic J2N-k hamsters; assay: Cardiomyopathy in J2N-k hamsters in vivo (echocardiography, serum cTN-I, Masson's trichrome fibrosis); set-up: species or system hamster; details: 300 mg/kg/day mixed with feed, 3 weeks
Experimental: Male δ-SG-deficient cardiomyopathic J2N-k and age-matched wild-type J2N-n hamsters (9 weeks old) were purchased from Japan SLC, Inc. (Shizuoka, Japan). Tranilast was ingested mixed with feed (300 mg/kg/day) as described previously, whereas other drugs (Figure 1) were administered orally in the drinking water at doses of 30 mg/kg (except lumin) per day for 3 weeks. In case of lumin, we first performed dose-dependent experiment at dose of 1,10 and100 mg/kg per day for 3 weeks, in order to determine the effective dose. […] After drug treatment, serum cardiac troponin (cTN)-I was measured and echocardiography analysis was performed. Histochemistry of cardiac muscles was performed as previously described. All animal experiments were performed according to the Guidelines for Animal Experimentation of the National Cerebral and Cardiovascular Center Research Institute.
Ventricles were fixed in phosphate-buffered saline containing 10% formalin and embedded in paraffin. Serial sections were cut at a thickness of 5 μm and stained with Masson's trichrome stain for morphological analysis. Sections were viewed under a BX41 light microscope (Olympus, Tokyo, Japan). Images were acquired with an FX380 digital camera (Olympus) and analysed using an FLVFS-LS imaging system (Flovel, Tokyo, Japan).
Fibrosis was assessed by measuring Masson's trichrome-positive areas. Briefly, colour images were converted to binary form by setting the threshold value so as to detect only blue-stained fibrotic areas, which were summed and reported as a percentage of the total.
Cardiac function was evaluated by echocardiography using a Sonos5500 ultrasound system (Hewlett-Packard, Palo Alto, CA, USA) with a 12-MHz transducer and M-mode imaging. The animals were sedated with tribromoethanol (350 mg/kg by intraperitoneal injection) during the process.
as §2

T2 sequence (P48995 whole entry): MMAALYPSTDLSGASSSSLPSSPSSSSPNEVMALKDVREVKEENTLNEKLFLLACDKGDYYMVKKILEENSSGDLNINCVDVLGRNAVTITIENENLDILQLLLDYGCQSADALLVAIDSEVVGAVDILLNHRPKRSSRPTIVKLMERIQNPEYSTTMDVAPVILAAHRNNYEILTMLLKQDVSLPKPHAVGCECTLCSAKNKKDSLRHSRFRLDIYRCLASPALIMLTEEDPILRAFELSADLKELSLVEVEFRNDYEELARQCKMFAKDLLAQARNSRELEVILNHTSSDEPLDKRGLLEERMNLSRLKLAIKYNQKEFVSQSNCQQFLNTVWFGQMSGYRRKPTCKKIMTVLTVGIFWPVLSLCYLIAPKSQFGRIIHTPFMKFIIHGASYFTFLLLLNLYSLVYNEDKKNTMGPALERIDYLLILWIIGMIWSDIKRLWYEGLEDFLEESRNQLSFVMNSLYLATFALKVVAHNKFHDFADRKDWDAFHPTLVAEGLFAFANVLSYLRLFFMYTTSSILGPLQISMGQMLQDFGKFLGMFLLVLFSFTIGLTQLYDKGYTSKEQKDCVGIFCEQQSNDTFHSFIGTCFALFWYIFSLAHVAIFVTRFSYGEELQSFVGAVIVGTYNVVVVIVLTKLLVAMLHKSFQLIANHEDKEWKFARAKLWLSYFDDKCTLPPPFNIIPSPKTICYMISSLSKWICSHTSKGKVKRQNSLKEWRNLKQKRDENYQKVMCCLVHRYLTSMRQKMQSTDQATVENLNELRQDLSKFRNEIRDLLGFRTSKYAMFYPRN

SMILES: CC[N+](CC)(CC)CC [tetraethylammonium]
effective doses for inhibition of TRPV2 activation (TRPV2 [1]): 100 to 1000 µM

SMILES: CC(C)c1ccc(C(=O)NC(=N)N)cc1S(C)(=O)=O [cariporide]
inhibition of the 2-APB-induced increase in [Ca2+]i (mouse TRPV2 (mTRPV2)): did not inhibit

SMILES: COc1ccc(CCCOC(Cn2ccnc2)c2ccc(OC)cc2)cc1 (stereo not drawn) [SKF96365, 1-[β-[3-(4-methoxyphenyl)propoxy]-4-methoxyphenethyl]-1H-imidazole]
IC50 (mouse TRPV2 (mTRPV2)): ≥ 10 µM
effect on store-operated increase in [Ca2+]i (hTRPC1): strongly inhibited

SMILES: Nc1ccncc1 [4-amino-pyridine]
effective doses for inhibition of TRPV2 activation (TRPV2 [1]): 100 to 1000 µM

SMILES: C=C(C)[C@@H]1CCC(C)=C[C@H]1c1c(O)cc(CCCCC)cc1O [cannabidiol]
Ca2+ responses elicited by TRPV2 agonists (initial assessment) (mouse TRPV2 (mTRPV2)): too small

SMILES: COc1ccc([C@@H]2Sc3ccccc3N(CCN(C)C)C(=O)[C@@H]2OC(C)=O)cc1 [diltiazem]
inhibition of the 2-APB-induced increase in [Ca2+]i (mouse TRPV2 (mTRPV2)): did not inhibit

SMILES: FC(F)(F)c1ccccc1-n1ccnc1 [1-(2-(trifluoromethyl)phenyl)imidazole]
effective doses for inhibition of TRPV2 activation (TRPV2 [1]): 100 to 1000 µM

Further lines, with some results ahead:

Ca2+ responses elicited by TRPV2 agonists (initial assessment) (mouse TRPV2 (mTRPV2)): too small
SMILES: CCCN(CCC)S(=O)(=O)c1ccc(C(=O)O)cc1 [probenecid]

IC50 (mouse TRPV2 (mTRPV2)): ≥ 10 µM
effect on TRPV2 channel activity (mTRPV2 channel): did not inhibit
SMILES: COc1ccc(/C=C/C(=O)Nc2ccccc2C(=O)O)cc1OC [tranilast, N-[3,4-dimethoxycinnamonyl]-anthranilic acid]
reduction of stretch-induced CK release (J2N-k myocytes): up to 70%
effect on pressure-induced inward current (TRPV2 [2]): blocked
effect on fibrosis (Masson's trichrome) [3]: prevented fibrosis
effect on fractional shortening (FS) [3]: prevented
effect on left ventricular end-diastolic dimension (LVDd) [3]: small effect
effect on left ventricular end-systolic dimension (LVDs) [3]: prevented the increase
effect on serum level of cTN-I [3]: reduced

inhibition of the 2-APB-induced increase in [Ca2+]i (mouse TRPV2 (mTRPV2)): did not inhibit
SMILES: [H]/N=C(/N)N[C@H]1[C@H](O)[C@@H](O)[C@H](O[C@@H]2O[C@@H](C)[C@](O)(C=O)[C@H]2O[C@@H]2O[C@@H](CO)[C@H](O)[C@@H](O)[C@@H]2NC)[C@@H](N/C(N)=N\[H])[C@@H]1O [streptomycin]
